Results reported in patent US20250332182A1, “Galactooligosaccharides for improving immune response” (N.V. Nutricia, priority 2021, published 2025).

Columns and labels:
[1] = test system: CXCR3+Th1 cells; details: spleen; DON in the diet
[2] = test system: CD25+ FoxP3+ Treg cells; details: spleen of vaccinated mice; DON in the diet
[3] = test system: T1ST2+Th2 cells; details: spleen; DON in the diet
[4] = test system: IL-4, IL-6, IL-13, TNF-α and MIP-2; details: re-stimulated splenocytes of vaccinated mice; dietary DON
[5] = test system: vaccine-specific immunoglobulin; details: vaccinated mice; DON in the diet

SMILES: CC1=C[C@H]2O[C@@H]3[C@H](O)C[C@](C)([C@@]2(CO)[C@H](O)C1=O)[C@]31CO1 [DON, deoxynivalenol]
- effect on CXCR3+Th1 cells [1]: No significant effect
- percentage of CD25+ FoxP3+ Treg cells [2]: not significantly affected
- effect on T1ST2+Th2 cells [3]: No significant effect
- concentrations of IL-4, IL-6, IL-13, TNF-α and MIP-2 in cell supernatants [4]: No significant effect
- vaccine-specific immunoglobulin production [5]: reduced
